# Columns and labels:
# Assay in all cases: Challenge test with moulds in MOS / MAS; on Week 1 (Log cfu/g): key: VG: growth; NVG: no growth; on Week 2 (Log cfu/g): key: VG: growth; NVG: no growth; on Week 3 (Log cfu/g): key: VG: growth; NVG: no growth; on Week 4 (Log cfu/g): key: VG: growth; NVG: no growth
# Type in all cases: cell-based
# Settings in all cases: for Week 0 (Log cfu/g) / Week 1 (Log cfu/g) / Week 2 (Log cfu/g) / Week 3 (Log cfu/g) / Week 4 (Log cfu/g): 0.10%; for mould growth: KS 0.10%
# [1] = system: Eurotium amstelodami (mould); on Week 1 (Log cfu/g): key: VG: growth; NVG: no growth; on Week 2 (Log cfu/g): key: VG: growth; NVG: no growth; on Week 3 (Log cfu/g): key: VG: growth; NVG: no growth; on Week 4 (Log cfu/g): key: VG: growth; NVG: no growth
# Method: (§1) Target microorganisms used for the challenge tests (CT) were Zygosaccharomyces bailii (yeast), Aspergillus niger (mould), Penicillium nalgiovense (mould) and Eurotium amstelodami (mould).
# (§2) Stock culture of the mould (mould spores suspended in Tryptone Salt 0.1% diluent) was revived on RBA plates by doing a 3-point inoculation. The inoculated RBA plates were incubated at 30° C. for 36 hours or until the colonies sporulated. The spores were then aseptically sub-cultured onto PDA plates for mass harvesting of the spores. The inoculated PDA plates were then incubated for 30° C. for 36 hours or until the colonies sporulated. Then, the spores were aseptically harvested with a sterile cotton swabs and suspended in sterile Tryptone Salt 0.1% diluent. The suspensions were analyzed for mould spore counts on DG18 plates as well as for microbial contamination on PCA with Cycloheximide by spread plating 0.1-0.5 ml of suspension onto the agar plates respectively. Before the challenge test is initiated, the suspension inoculated with the mould spores was diluted aseptically with sterile Tryptone Salt 0.1% to the desired level such that the inoculation level in the product would be 2-3 log of colony-forming-units (cfu) of moulds per gram of product.
# (§3) Challenge Test with moulds was according to the following steps: 1) Add 100 g of MOS into a 250 ml sterile Schott bottle with screw-cap cover; 2) Add 0.1 to 2 ml of mould (A. niger/P. nalgiovence/E. amstelodami) inoculum to meet the target inoculum of 10^2-10^3 cfu/g of MOS into the 100 g MOS and shake to mix well; 3) Pour 35 g of the inoculated MOS into a petri dish. Perform this in duplicate; 4) Pipette 1 g of inoculated MOS from the Schott bottle into 9 ml sterile Tryptone Salt 0.1% diluents and vortex. Perform this in duplicate; 5) Plate 0.1-0.5 ml of inoculated Tryptone Salt 0.1% onto DG18 plates at appropriate dilutions by Spread Plate Method. Incubate the agar plates at 25° C. for 5 days to enumerate the initial mould count; 6) Incubate the inoculated MOS in petri dishes at 30° C. for a week. Monitor for mould growth by visual observation after one week. Perform this mould growth monitoring for a period of 4 weeks; 7) The control was prepared by repeating steps 3 to 6 without using any inoculum. The control was plated onto PCA with Cycloheximide plates.
# (§4) The method for producing MAS was the same as for the MOS production in experiment 4. The preparation of the microorganism cultures as well as the challenge tests were identical to the ones described in experiment 4 as well.
# [2] = system: Penicillium nalgiovense (mould); on Week 1 (Log cfu/g): key: VG: growth; NVG: no growth; on Week 2 (Log cfu/g): key: VG: growth; NVG: no growth; on Week 3 (Log cfu/g): key: VG: growth; NVG: no growth; on Week 4 (Log cfu/g): key: VG: growth; NVG: no growth
# Method: as §1, §2, §3, §4
# [3] = system: Aspergillus niger (mould); on Week 1 (Log cfu/g): key: VG: growth; NVG: no growth; on Week 2 (Log cfu/g): key: VG: growth; NVG: no growth; on Week 3 (Log cfu/g): key: VG: growth; NVG: no growth; on Week 4 (Log cfu/g): key: VG: growth; NVG: no growth
# Method: as §1, §2, §3, §4
# [4] = MAGGI Abalone Sauce, age 0 month
# [5] = MAGGI Abalone Sauce, age 1 month
# [6] = MAGGI Abalone Sauce, age 3 month
# [7] = MAGGI Abalone Sauce, age 6 month
# [8] = MAGGI Abalone Sauce, age 10 month
# [9] = MAGGI Abalone Sauce, age 12 month
# [10] = MAGGI Abalone Sauce, up to 12 months, clove leaf oil 0.06 wt % and 0.15 wt %
# [11] = MAGGI Oyster Sauce, garlic EO 0.06 wt % and 0.12 wt %
# [12] = MAGGI Oyster Sauce, age 0 month
structure (smiles),measurement,setting,value
"C/C=C/C=C/C(=O)[O-].[K+] [KS, potassium sorbate]",Week 0 (Log cfu/g),[1]; [4],2.93 Log cfu/g
same,Week 1 (Log cfu/g),[1]; [4],NVG
same,Week 2 (Log cfu/g),[1]; [4],NVG
same,Week 3 (Log cfu/g),[1]; [4],NVG
same,Week 4 (Log cfu/g),[1]; [4],NVG
same,Week 0 (Log cfu/g),[1]; [5],1.54 Log cfu/g
same,Week 1 (Log cfu/g),[1]; [5],NVG
same,Week 2 (Log cfu/g),[1]; [5],NVG
same,Week 3 (Log cfu/g),[1]; [5],NVG
same,Week 4 (Log cfu/g),[1]; [5],NVG
same,Week 0 (Log cfu/g),[1]; [6],2.69 Log cfu/g
same,Week 1 (Log cfu/g),[1]; [6],NVG
same,Week 2 (Log cfu/g),[1]; [6],NVG
same,Week 3 (Log cfu/g),[1]; [6],NVG
same,Week 4 (Log cfu/g),[1]; [6],NVG
same,Week 0 (Log cfu/g),[1]; [7],2.67 Log cfu/g
same,Week 1 (Log cfu/g),[1]; [7],NVG
same,Week 2 (Log cfu/g),[1]; [7],NVG
same,Week 3 (Log cfu/g),[1]; [7],NVG
same,Week 4 (Log cfu/g),[1]; [7],NVG
same,Week 0 (Log cfu/g),[1]; [8],3.80 Log cfu/g
same,Week 1 (Log cfu/g),[1]; [8],NVG
same,Week 2 (Log cfu/g),[1]; [8],NVG
same,Week 3 (Log cfu/g),[1]; [8],NVG
same,Week 4 (Log cfu/g),[1]; [8],NVG
same,Week 0 (Log cfu/g),[1]; [9],2.38 Log cfu/g
same,Week 1 (Log cfu/g),[1]; [9],NVG
same,Week 2 (Log cfu/g),[1]; [9],NVG
same,Week 3 (Log cfu/g),[1]; [9],NVG
same,Week 4 (Log cfu/g),[1]; [9],NVG
same,mould growth,[1]; [10],not detected
same,mould growth,[1]; [11],not detected
same,Week 0 (Log cfu/g),[1]; [12],2.204 Log cfu/g
same,Week 1 (Log cfu/g),[1]; [12],NVG
same,Week 2 (Log cfu/g),[1]; [12],NVG
same,Week 3 (Log cfu/g),[1]; [12],NVG
same,Week 4 (Log cfu/g),[1]; [12],NVG
same,Week 0 (Log cfu/g),[2]; [4],1.54 Log cfu/g
same,Week 1 (Log cfu/g),[2]; [4],NVG
same,Week 2 (Log cfu/g),[2]; [4],NVG
same,Week 3 (Log cfu/g),[2]; [4],NVG
same,Week 4 (Log cfu/g),[2]; [4],NVG
same,Week 0 (Log cfu/g),[2]; [5],1.73 Log cfu/g
same,Week 1 (Log cfu/g),[2]; [5],NVG
same,Week 2 (Log cfu/g),[2]; [5],NVG
same,Week 3 (Log cfu/g),[2]; [5],NVG
same,Week 4 (Log cfu/g),[2]; [5],NVG
same,Week 0 (Log cfu/g),[2]; [6],2.71 Log cfu/g
same,Week 1 (Log cfu/g),[2]; [6],NVG
same,Week 2 (Log cfu/g),[2]; [6],NVG
same,Week 3 (Log cfu/g),[2]; [6],NVG
same,Week 4 (Log cfu/g),[2]; [6],NVG
same,Week 0 (Log cfu/g),[2]; [7],2.03 Log cfu/g
same,Week 1 (Log cfu/g),[2]; [7],NVG
same,Week 2 (Log cfu/g),[2]; [7],NVG
same,Week 3 (Log cfu/g),[2]; [7],NVG
same,Week 4 (Log cfu/g),[2]; [7],NVG
same,Week 0 (Log cfu/g),[2]; [8],3.86 Log cfu/g
same,Week 1 (Log cfu/g),[2]; [8],NVG
same,Week 2 (Log cfu/g),[2]; [8],NVG
same,Week 3 (Log cfu/g),[2]; [8],NVG
same,Week 4 (Log cfu/g),[2]; [8],NVG
same,Week 0 (Log cfu/g),[2]; [9],3.26 Log cfu/g
same,Week 1 (Log cfu/g),[2]; [9],NVG
same,Week 2 (Log cfu/g),[2]; [9],NVG
same,Week 3 (Log cfu/g),[2]; [9],NVG
same,Week 4 (Log cfu/g),[2]; [9],NVG
same,mould growth,[2]; [10],not detected
same,mould growth,[2]; [11],not detected
same,Week 0 (Log cfu/g),[2]; [12],4.079 Log cfu/g
same,Week 1 (Log cfu/g),[2]; [12],NVG
same,Week 2 (Log cfu/g),[2]; [12],NVG
same,Week 3 (Log cfu/g),[2]; [12],NVG
same,Week 4 (Log cfu/g),[2]; [12],NVG
same,Week 0 (Log cfu/g),[3]; [4],1.9 Log cfu/g
same,Week 1 (Log cfu/g),[3]; [4],NVG
same,Week 2 (Log cfu/g),[3]; [4],NVG
same,Week 3 (Log cfu/g),[3]; [4],NVG
same,Week 4 (Log cfu/g),[3]; [4],NVG
same,Week 0 (Log cfu/g),[3]; [5],1.15 Log cfu/g
same,Week 1 (Log cfu/g),[3]; [5],NVG
same,Week 2 (Log cfu/g),[3]; [5],NVG
same,Week 3 (Log cfu/g),[3]; [5],NVG
same,Week 4 (Log cfu/g),[3]; [5],NVG
same,Week 0 (Log cfu/g),[3]; [6],2.19 Log cfu/g
same,Week 1 (Log cfu/g),[3]; [6],NVG
same,Week 2 (Log cfu/g),[3]; [6],NVG
same,Week 3 (Log cfu/g),[3]; [6],NVG
same,Week 4 (Log cfu/g),[3]; [6],NVG
same,Week 0 (Log cfu/g),[3]; [7],2.16 Log cfu/g
same,Week 1 (Log cfu/g),[3]; [7],NVG
same,Week 2 (Log cfu/g),[3]; [7],NVG
same,Week 3 (Log cfu/g),[3]; [7],NVG
same,Week 4 (Log cfu/g),[3]; [7],NVG
same,Week 0 (Log cfu/g),[3]; [8],3.67 Log cfu/g
same,Week 1 (Log cfu/g),[3]; [8],NVG
same,Week 2 (Log cfu/g),[3]; [8],NVG
same,Week 3 (Log cfu/g),[3]; [8],NVG
same,Week 4 (Log cfu/g),[3]; [8],NVG
same,Week 0 (Log cfu/g),[3]; [9],2.96 Log cfu/g
same,Week 1 (Log cfu/g),[3]; [9],NVG
same,Week 2 (Log cfu/g),[3]; [9],NVG
same,Week 3 (Log cfu/g),[3]; [9],NVG
same,Week 4 (Log cfu/g),[3]; [9],NVG
same,mould growth,[3]; [10],not detected
same,mould growth,[3]; [11],not detected
same,Week 0 (Log cfu/g),[3]; [12],3.114 Log cfu/g
same,Week 1 (Log cfu/g),[3]; [12],NVG
same,Week 2 (Log cfu/g),[3]; [12],NVG
same,Week 3 (Log cfu/g),[3]; [12],NVG
same,Week 4 (Log cfu/g),[3]; [12],NVG

# From patent US8859018B2, “Delivery carrier for antimicrobial essential oils” (Nestec S.A., priority 2010, dated 2014)
